In brackets after ≈: the same amount, converted by molar mass. Read-outs that look alike come from different tables or passages of the source.
Key:
Assay type in all cases: cell-based
[1] = test system: YEM 27 C. albicans ΔCDR1ΔCDR2 ΔBENΔFLU1; assay: microbe, parasite or virus in culture; conditions: YEM 27, 24 hrs, 80% inhibition; for MIC of compound in the presence of fluconazole (+): 1/8 × MIC of fluconazole
[2] = test system: YEM 15 C. albicans, CDR1CDR2 up; assay: microbe, parasite or virus in culture; conditions: YEM 15, 24 hrs, 80% inhibition; for MIC of compound in the presence of fluconazole (+): 1/8 × MIC of fluconazole
[3] = test system: YEM 24 C. albicans ΔCDR1, ΔCDR2; assay: microbe, parasite or virus in culture; conditions: YEM 24, 24 hrs, 80% inhibition; for MIC of compound in the presence of fluconazole (+): 1/8 × MIC of fluconazole
[4] = test system: Aspergillus fumigatus; assay: FEPI MICs in combination with 1/4 the azole's MIC (Table 12); parameters: FEPI MIC (alone): unit not given here; conditions: for FEPI MIC with fluconazole, 60% Inh / FEPI MIC with fluconazole, 80% Inh: fluconazole 32 μg/ml (1/4 MIC); for FEPI MIC with fluconazole, 60% Inh / FEPI MIC with itraconazole, 60% Inh / FEPI MIC with ketoconazole, 60% Inh: 60% inhibition; for FEPI MIC with fluconazole, 80% Inh / FEPI MIC with itraconazole, 80% Inh / FEPI MIC with ketoconazole, 80% Inh / FEPI MIC (alone): 80% inhibition; for FEPI MIC with itraconazole, 60% Inh / FEPI MIC with itraconazole, 80% Inh: itraconazole 0.063 μg/ml (1/4 MIC); for FEPI MIC with ketoconazole, 60% Inh / FEPI MIC with ketoconazole, 80% Inh: ketoconazole 4 μg/ml (1/4 MIC); for FEPI MIC (alone): no azole, 35° C., CM Broth
Method: The combinations were tested against a series of Candida strain with known expression of efflux pumps or with complete deletion of all known pumps and Aspergillus fumigatus. Results are reported as minimum inhibitory concentration (MIC) of […] in the presence or absence of […]. A total of 27 distinct milbemycins were studied.

[5] = test system: YEM 53 C. krusei; assay: FEPI MIC with/without 1/8 fluconazole MIC at 24 hrs (Table 11); conditions: YEM 53, 24 hrs, 80% inhibition; for MIC of compound in the presence of fluconazole (+): 1/8 × MIC of fluconazole
[6] = test system: YEM 13 C. albicans BEN up; assay: microbe, parasite or virus in culture; conditions: YEM 13, 24 hrs, 80% inhibition; for MIC of compound in the presence of fluconazole (+): 1/8 × MIC of fluconazole
[7] = test system: YEM 30 C. albicans wt; assay: FEPI MIC with/without 1/8 fluconazole MIC at 24 hrs (Table 11); conditions: YEM 30, 24 hrs, 80% inhibition; for MIC of compound in the presence of fluconazole (+): 1/8 × MIC of fluconazole
[8] = test system: YEM 17 C. glabrata, CgCDR up; conditions: 24 hrs, 80% inhibition; for MIC of compound in the presence of fluconazole (+): 1/8 × MIC of fluconazole
[9] = test system: YEM 51 C. glabrata wt; assay: FEPI MIC with/without 1/8 fluconazole MIC at 24 hrs (Table 11); conditions: YEM 51, 24 hrs, 80% inhibition; for MIC of compound in the presence of fluconazole (+): 1/8 × MIC of fluconazole
[10] = test system: C. glabrata YEM-17 (CgCDR overexpressor); assay: microbe, parasite or virus in culture; conditions: Nakaseomyces glabratus
[11] = test system: C. krusei YEM-71; assay: Broth dilution checkerboard, azoles and terbinafine with milbemycin α9 (Table 8); conditions: Pichia kudriavzevii, YEM71, YEM-71, alone
[12] = test system: C. albicans YEM-15 (CDR1 & CDR2 overexpressor); assay: microbe, parasite or virus in culture; conditions: Candida albicans

Molecule | MIC of compound in the presence of fluconazole (+) [1] [µg/mL] | MIC of compound in the absence of fluconazole (−) [1] [µg/mL] | MIC of compound in the presence of fluconazole (+) [2] | MIC of compound in the absence of fluconazole (−) [2] [µg/mL] | MIC of compound in the presence of fluconazole (+) [3] [µg/mL] | MIC of compound in the absence of fluconazole (−) [3] [µg/mL] | FEPI MIC with fluconazole, 60% Inh [4] | FEPI MIC with fluconazole, 80% Inh [4] | FEPI MIC with itraconazole, 60% Inh [4] | FEPI MIC with itraconazole, 80% Inh [4] | FEPI MIC with ketoconazole, 60% Inh [4] | FEPI MIC with ketoconazole, 80% Inh [4] | FEPI MIC (alone) [4] | MIC of compound in the presence of fluconazole (+) [5] [µg/mL] | MIC of compound in the absence of fluconazole (−) [5] [µg/mL] | MIC of compound in the presence of fluconazole (+) [6] [µg/mL] | MIC of compound in the absence of fluconazole (−) [6] [µg/mL] | MIC of compound in the presence of fluconazole (+) [7] | MIC of compound in the absence of fluconazole (−) [7] [µg/mL] | MIC of compound in the presence of fluconazole (+) [8] [µg/mL] | other results
CCC(C)C1OC2(CC3CC(CC=C(C)C(O)C(C)C=CC=C4COC5C(O)C(C)=CC(C(=O)O3)C45O)O2)CC(O)C1C (stereo not drawn) [Compound 14, Avermectin β2a aglycone] | > 64 | > 64 | 2 µg/mL | > 64 | > 64 | > 64 | 64 | >64 | >64 | >64 | 2 | 16 | >64 | > 64 | > 64 | > 64 | > 64 | 4 µg/mL | > 64 | 16 | MIC of compound in the absence of fluconazole (−) [8]: > 64 µg/mL; MIC of compound in the presence of fluconazole (+) [9]: 16 µg/mL; MIC of compound in the absence of fluconazole (−) [9]: > 64 µg/mL
C/C1=C\C[C@@H]2C[C@@H](C[C@]3(CC[C@H](C)[C@@H](C)O3)O2)OC(=O)[C@@H]2C=C(COC(=O)C(C)C)[C@@H](O)[C@H]3OC/C(=C\C=C\[C@H](C)C1)[C@]32O [Compound 20, 4a-O-isobutyryl milbemycin α1] | 64 | > 64 | ≦0.03 | > 64 | > 64 | > 64 | 2 | 4 | 0.25 | 8 | ≦0.063 | ≦0.063 | 64 | 4 | > 64 | 64 | > 64 | ≦0.06 | > 64 | 4 | MIC of compound in the absence of fluconazole (−) [8]: > 64 µg/mL; MIC of compound in the presence of fluconazole (+) [9]: 2 µg/mL; MIC of compound in the absence of fluconazole (−) [9]: > 64 µg/mL
CCC(C)C1OC2(CC3CC(CC=C(C)C(OC4CC(OC)C(O)C(C)O4)C(C)C=CC=C4COC5C(O)C(C)=CC(C(=O)O3)C45O)O2)CC(O)C1C (stereo not shown) [Compound 23, Avermectin B2a monoglycoside] | > 64 | > 64 | 64 µg/mL | > 64 | > 64 | > 64 | >64 | >64 | 64 | >64 | ≦0.063 | 8 | >64 | > 64 | > 64 | > 64 | > 64 | ≦0.03 | > 64 | > 64 | MIC of compound in the absence of fluconazole (−) [8]: > 64 µg/mL; MIC of compound in the presence of fluconazole (+) [9]: > 64 µg/mL; MIC of compound in the absence of fluconazole (−) [9]: > 64 µg/mL
C/C1=C\C[C@@H]2C[C@@H](C[C@]3(CC[C@H](C)[C@@H](C)O3)O2)OC(=O)[C@@H]2C=C(COC(=O)Cc3ccccc3)[C@@H](O)[C@H]3OC/C(=C\C=C\[C@H](C)C1)[C@]32O [Compound 25, 4a-O-phenylacetyl milbemycin α1] | > 64 | > 64 | ≦0.03 | > 64 | > 64 | > 64 | 1 | 2 | 0.5 | >64 | ≦0.063 | 0.25 | >64 | 0.06 | > 64 | > 64 | > 64 | ≦0.03 | > 64 | 2 | MIC of compound in the absence of fluconazole (−) [8]: > 64 µg/mL; MIC of compound in the presence of fluconazole (+) [9]: 4 µg/mL; MIC of compound in the absence of fluconazole (−) [9]: > 64 µg/mL
CCC(C)n1ncn(-c2ccc(N3CCN(c4ccc(OCC5COC(Cn6cncn6)(c6ccc(Cl)cc6Cl)O5)cc4)CC3)cc2)c1=O (stereo not shown) [Itraconazole, itraconazole, reference compound] |  |  |  |  |  |  |  |  |  |  |  |  |  |  |  |  |  |  |  |  | MIC ([10]; read-out: Itraconazole MIC): 128 µg/mL (≈ 181 µM); MIC ([11]; read-out: Itraconazole MIC): 0.5 µg/mL; MIC ([12]; read-out: Itraconazole MIC): 0.5 µg/mL (≈ 0.709 µM)
CC(=O)N1CCN(c2ccc(OCC3COC(Cn4ccnc4)(c4ccc(Cl)cc4Cl)O3)cc2)CC1 (stereo not shown) [Ketoconazole, ketoconazole, reference compound] |  |  |  |  |  |  |  |  |  |  |  |  |  |  |  |  |  |  |  |  | MIC ([10]; read-out: Ketoconazole MIC): 2 µg/mL (≈ 3.76 µM); MIC ([11]; read-out: Ketoconazole MIC): 2 µg/mL; MIC ([12]; read-out: Ketoconazole MIC): 1 µg/mL (≈ 1.88 µM)
LL-F2849ζ (nemedectinζ) [Compound 17] | 64 | > 64 | ≦0.03 | > 64 | > 64 | > 64 | 64 | 64 | 16 | >64 | 4 | 4 | >64 | > 64 | > 64 | > 64 | > 64 | ≦0.03 | > 64 | 2 | MIC of compound in the absence of fluconazole (−) [8]: > 64 µg/mL; MIC of compound in the presence of fluconazole (+) [9]: 0.5 µg/mL; MIC of compound in the absence of fluconazole (−) [9]: > 64 µg/mL

— patent US6495591B1, “Fungal efflux pump inhibitors” (Essential Therapeutics, Inc., priority 1997, dated 2002)
